Laboratory results from patent publication US20030186898A1, “8- (C-beta-D-glucopyranosyl) -7, 3', 4' -trihydroxyflavone, process of isolation thereof, pharmaceutical composition and method for the treatment of diabetes” (priority 2002, published 2003).

Tested on: 18 h. fasted Wistar rats
Assay: hypoglycaemic activity in 18 h. fasted Wistar rats
Format: in vivo
Procedure: The compound 8-(C-β-D-glucopyranosyl)-7,3′,4′-trihydroxyflavone has been evaluated for hypoglycaemic activity in 18 h. fasted Wistar rats. […] The mean fall recorded was 24 mg/100 ml. blood, from initial mean of 92 to mean of 68 mg/100 ml. blood.

SMILES: O=c1cc(-c2ccc(O)c(O)c2)oc2c([C@@H]3O[C@H](CO)[C@@H](O)[C@H](O)[C@H]3O)c(O)ccc12 [8-(C-β-D-glucopyranosyl)-7,3′,4′-trihydroxyflavone]
- hypoglycaemic effect (10 mg/kg p. o.): hypoglycaemic effect was recorded in all the treated rats
- mean (blood sugar) after treatment (after 10 mg/kg p. o.): 68 mg/100 ml. blood
- initial mean (blood sugar) (before treatment with 10 mg/kg p. o.): 92 mg/100 ml. blood
- mean fall (blood sugar) (compound at 10 mg/kg p. o.): 24 mg/100 ml. blood
